Tested on: diarrhea-predominant IBS subjects
Format: in vivo, human
Details: Cilansetron 2 mg, N=1454
Procedure: The study was performed in approximately 150 study centers. Approximately 1600 eligible subjects were to be given cilansetron 2 mg TID. At Visit 1, pre-treatment assessments were conducted. […] Subjects were to return to the study site one month later for Visit 3 (Day 31) for their first interim assessment. […] All subjects who discontinued from the study were to have the same post-study assessments required at Visit 7 performed at their early termination visit. […]
Stool specimens were analyzed at every visit for occult blood. An independent GERB had been established to provide advice on GI AEs during the course of the study.
Adverse events were assessed at Baseline, at each clinic visit, and at the end of the study (Month 12 or the early termination visit). All AEs, which occurred during the study were followed up in accordance with good medical practice until resolved or judged no longer clinically significant, or if a condition was chronic, until fully characterized. Adverse events could occur in the specified follow-up period and, regardless of the interval since the last administration of the study medication, were treated in the same manner as an AE which occurred during the treatment with study medication. Each AE was evaluated for duration, severity, seriousness, and causal relationship to the investigational drug. The action taken and the outcome were also recorded.
Specifically, subjects who were lost to follow-up and had no post-Baseline contact with the site were excluded from the Safety population. The subjects who discontinued from the study due to lost to follow-up were identified based on the information collected on the study termination CRF page.
After the pretreatment assessment at Visit 1 (Days […] to −3), subjects were to return to the study site for a Baseline assessment and start the treatment at Visit 2 (Day 1).
For the by time-interval analyses of disposition, prevalence of AEs, and of markedly abnormal and predefined changes in laboratory values, vital signs, and ECGs, the following interval windows were used:
Adverse events that were already present prior to the first dose of cilansetron study medication but increased in severity afterwards were considered as treatment-emergent.
The 5% cutoff point was based on the incidence within higher level terms.
Subjects were counted at most once for each primary system organ class and preferred term. Serious AEs that resolved prior to receiving study medication or occurred more than 30 days after the last dose of study medication were not included in the incidence tables. A listing of all SAEs is presented; SAEs with onset prior to receiving study medication or more than 30 days after discontinuation of study medication were flagged. The listing presents lower level term and preferred term of the SAE, severity, action taken, outcome, and relationship of the SAE, start and stop date of the SAE, study day of onset of the SAE, age, race, and sex.

Cc1nccn1C[C@H]1CCc2c(c3cccc4c3n2CCC4)C1=O [cilansetron, (R)-(−)-4,5,6,8,9,10-hexahydro-10-[(2-methyl-1H-imidazol-1-yl)methyl]-11H-pyrido-[3,2,1-jk]-carbazol-11-one]
TEAE incidence: Carbohydrate Tolerance Analyses (Incl Diabetes): 2 (<1%) n (%) | TEAE incidence: Cardiac Enzymes Increased: 1 (<1%) n (%) | TEAE incidence: Carotid Artery Atheroma: 1 (<1%) n (%) | TEAE incidence: Carotid Artery Stenosis: 1 (<1%) n (%) | TEAE incidence: Carpal Tunnel Syndrome: 2 (<1%) n (%) | TEAE incidence: Cellulitis: 1 (<1%) n (%) | TEAE incidence: Central Nervous System Haemorrhages and Cerebrovascular Accidents: 1 (<1%) n (%) | TEAE incidence: Central Nervous system Vascular Disorders NEC: 2 (<1%) n (%) | TEAE incidence: Cerebral Infarction: 1 (<1%) n (%) | TEAE incidence: Cervical Root Pain: 1 (<1%) n (%) | TEAE incidence: Cervical Spinal Cord and Nerve Root Disorders: 1 (<1%) n (%) | TEAE incidence: Cholesterol Analyses: 25 (2%) n (%) | TEAE incidence: Colitis Ischaemic: 2 (<1%) n (%) | TEAE incidence: Colitis NOS: 1 (<1%) n (%) | TEAE incidence: Colonic Polyp: 2 (<1%) n (%) | TEAE incidence: Cystitis Acute NOS: 5 (<1%) n (%) | TEAE incidence: Cystitis NOS: 4 (<1%) n (%) | TEAE incidence: Defaecation Urgency: 1 (<1%) n (%) | TEAE incidence: Dental Discomfort: 1 (<1%) n (%) | TEAE incidence: Dental Pain and Sensation Disorders: 13 (<1%) n (%) | TEAE incidence: Diaphragmatic Hernias: 2 (<1%) n (%) | TEAE incidence: Diarrhoea Aggravated: 8 (<1%) n (%) | TEAE incidence: Diarrhoea Haemorrhagic: 1 (<1%) n (%) | TEAE incidence: Diarrhoea NOS: 73 (5%) n (%) | TEAE incidence: Disturbances in Consciousness NEC: 5 (<1%) n (%) | TEAE incidence: Dizziness: 28 (2%) n (%) | TEAE incidence: Dry Mouth: 3 (<1%) n (%) | TEAE incidence: Duodenal Polyp: 1 (<1%) n (%) | TEAE incidence: Duodenal Ulcer: 1 (<1%) n (%) | TEAE incidence: Duodenal Ulcers and Perforation: 1 (<1%) n (%) | TEAE incidence: Duodenitis: 2 (<1%) n (%) | TEAE incidence: Dysgeusia: 2 (<1%) n (%) | TEAE incidence: Dyspepsia: 50 (3%) n (%) | TEAE incidence: Dyspepsia Aggravated: 4 (<1%) n (%) | TEAE incidence: Dyspeptic Signs and Symptoms: 59 (4%) n (%) | TEAE incidence: Dysphagia: 1 (<1%) n (%) | TEAE incidence: Dystonias: 1 (<1%) n (%) | TEAE incidence: ECG Investigations: 25 (2%) n (%) | TEAE incidence: Electrocardiogram Abnormal NOS: 2 (<1%) n (%) | TEAE incidence: Electrocardiogram Change NOS: 1 (<1%) n (%) | TEAE incidence: Electrocardiogram Pr Interval Prolonged: 1 (<1%) n (%) | TEAE incidence: Electrocardiogram Pr Shortened: 1 (<1%) n (%) | TEAE incidence: Electrocardiogram Q Waves Normal: 1 (<1%) n (%) | TEAE incidence: Electrocardiogram Qt Shortened: 1 (<1%) n (%) | TEAE incidence: Electrocardiogram St Segment Depression: 3 (<1%) n (%) | TEAE incidence: Electrocardiogram St Segment Elevation: 3 (<1%) n (%) | TEAE incidence: Electrocardiogram T Wave Abnormal: 4 (<1%) n (%) | TEAE incidence: Electrocardiogram T Wave Amplitude Decreased: 1 (<1%) n (%) | TEAE incidence: Electrocardiogram T Wave Inversion: 7 (<1%) n (%) | TEAE incidence: Eosinophil Count Increased: 18 (1%) n (%) | TEAE incidence: Eosinophil Percentage Increased: 2 (<1%) n (%) | TEAE incidence: Epigastric Discomfort: 2 (<1%) n (%) | TEAE incidence: Epigastric Hernia: 1 (<1%) n (%) | TEAE incidence: Eructation: 5 (<1%) n (%) | TEAE incidence: Facial Cranial Nerve Disorders: 1 (<1%) n (%) | TEAE incidence: Facial Palsy: 1 (<1%) n (%) | TEAE incidence: Faecal Abnormality NOS: 3 (<1%) n (%) | TEAE incidence: Faecal Occult Blood Positive: 9 (<1%) n (%) | TEAE incidence: Faeces Abnormal: 51 (4%) n (%) | TEAE incidence: Faeces Discoloured: 2 (<1%) n (%) | TEAE incidence: Faeces Hard: 32 (2%) n (%) | TEAE incidence: Food Poisoning NOS: 1 (<1%) n (%) | TEAE incidence: Frequent Bowel Movements: 5 (<1%) n (%) | TEAE incidence: Gamma-Glutamyltransferase Decreased: 1 (<1%) n (%) | TEAE incidence: Gamma-Glutamyltransferase Increased: 19 (1%) n (%) | TEAE incidence: Gastric Erosions: 2 (<1%) n (%) | TEAE incidence: Gastric Polyps: 1 (<1%) n (%) | TEAE incidence: Gastric Ulcer: 2 (<1%) n (%) | TEAE incidence: Gastric Ulcers and Perforation: 4 (<1%) n (%) | TEAE incidence: Gastritis Aggravated: 4 (<1%) n (%) | TEAE incidence: Gastritis NOS: 13 (<1%) n (%) | TEAE incidence: Gastroenteritis NOS: 24 (2%) n (%) | TEAE incidence: Gastrointestinal Atonic and Hypomotility Disorders NEC: 228 (16%) n (%) | TEAE incidence: Gastrointestinal Disorders: 587 (40%) n (%) | TEAE incidence: Gastrointestinal Disorders NEC: 2 (<1%) n (%) | TEAE incidence: Gastrointestinal Dyskinetic Disorders: 1 (<1%) n (%) | TEAE incidence: Gastrointestinal Histopathology Procedures: 22 (2%) n (%) | TEAE incidence: Gastrointestinal Inflammatory Disorders NEC: 3 (<1%) n (%) | TEAE incidence: Gastrointestinal Motility Disorder NOS: 1 (<1%) n (%) | TEAE incidence: Gastrointestinal Mucosal Dystrophies and Secretion Disorders: 2 (<1%) n (%) | TEAE incidence: Gastrointestinal Neoplasms NEC: 2 (<1%) n (%) | TEAE incidence: Gastrointestinal Pain NOS: 2 (<1%) n (%) | TEAE incidence: Gastrointestinal Signs and Symptoms NEC: 12 (<1%) n (%) | TEAE incidence: Gastrointestinal Spastic and Hypermotility Disorders: 21 (1%) n (%) | TEAE incidence: Gastrointestinal and Abdominal Pains (Excl Oral and Throat): 223 (15%) n (%) | TEAE incidence: Gingival Disorders NEC: 1 (<1%) n (%) | TEAE incidence: Gingivitis: 1 (<1%) n (%) | TEAE incidence: Glossitis: 1 (<1%) n (%) | TEAE incidence: Glucose Urine Present: 2 (<1%) n (%) | TEAE incidence: Haematemesis: 1 (<1%) n (%) | TEAE incidence: Haematological Analyses NEC: 1 (<1%) n (%) | TEAE incidence: Haemoglobin Decreased: 1 (<1%) n (%) | TEAE incidence: Haemorrhoidal Haemorrhage: 9 (<1%) n (%) | TEAE incidence: Haemorrhoids: 30 (2%) n (%) | TEAE incidence: Haemorrhoids Aggravated: 1 (<1%) n (%) | TEAE incidence: Haemorrhoids and Gastrointestinal Varices (Excl Oesophageal): 38 (3%) n (%) | TEAE incidence: Halitosis: 2 (<1%) n (%) | TEAE incidence: Headache NOS Aggravated: 2 (<1%) n (%) | TEAE incidence: Headaches NEC: 104 (7%) n (%) | TEAE incidence: Herpes Simplex: 3 (<1%) n (%) | TEAE incidence: Herpes Zoster: 4 (<1%) n (%) | TEAE incidence: Hiatus Hernia: 2 (<1%) n (%) | TEAE incidence: Hiccups: 1 (<1%) n (%) | TEAE incidence: Hyperacidity: 4 (<1%) n (%) | TEAE incidence: Hypersomnia: 1 (<1%) n (%) | TEAE incidence: Hypoaesthesia: 2 (<1%) n (%) | TEAE incidence: Hypoaesthesia Oral: 1 (<1%) n (%) | TEAE incidence: Ileus Paralytic: 1 (<1%) n (%) | TEAE incidence: Influenza: 51 (4%) n (%) | TEAE incidence: Inguinal Hernia NOS: 2 (<1%) n (%) | TEAE incidence: Inguinal Hernias: 2 (<1%) n (%) | TEAE incidence: Intercostal Neuralgia: 1 (<1%) n (%) | TEAE incidence: Intertrigo Candida: 1 (<1%) n (%)

Reference: patent US20070093520A1, “Method of treatment of diarrhea-predominant irritable bowel syndrome in a subject” (priority 2005, published 2007)
